Results taken from PubChem BioAssay AID1960 (Broad Institute, 2009).
Inconclusive results are not listed. Activity calls are given as the source filed them. How the calls were made is not given here.

Molecular target: Zinc finger protein mex-5 (Caenorhabditis elegans) (UniProt Q9XUB2)
Assay: potency of MEX-5 RNA-binding blockers – biochemical, fluorescence polarization, dose response (AID 1960)
Conditions: MEX-5/FITC-TCR2 RNA fluorescence polarization, 1 h

Chain of Zinc finger protein mex-5 (Caenorhabditis elegans) (Q9XUB2 whole entry, looked up): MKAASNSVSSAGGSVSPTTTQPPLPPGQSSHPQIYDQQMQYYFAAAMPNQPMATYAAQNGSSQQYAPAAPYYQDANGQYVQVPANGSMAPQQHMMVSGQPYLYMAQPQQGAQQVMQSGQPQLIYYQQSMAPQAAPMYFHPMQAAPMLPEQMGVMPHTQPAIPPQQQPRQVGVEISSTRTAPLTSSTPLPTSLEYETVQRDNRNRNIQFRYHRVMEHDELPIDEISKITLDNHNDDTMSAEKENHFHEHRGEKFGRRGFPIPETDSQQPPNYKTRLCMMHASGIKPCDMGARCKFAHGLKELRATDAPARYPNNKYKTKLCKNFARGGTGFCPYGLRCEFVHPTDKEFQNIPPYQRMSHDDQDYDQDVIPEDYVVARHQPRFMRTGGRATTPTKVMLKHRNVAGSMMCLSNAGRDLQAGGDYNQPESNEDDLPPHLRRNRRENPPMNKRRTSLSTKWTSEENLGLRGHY

In the case of CC[C@H](C)/C=C(C)/C=C/C1=CC2=C(Cl)C(=O)[C@@](C)(OC(C)=O)C(=O)C2=CO1, the EC50 is reported as 17.8 µM.

CCC(C)/C=C(C)/C=C/C1=CC2=C(Cl)C(=O)C(C)(OC(C)=O)C(=O)C2=CO1 (centres undefined) was tested, and the EC50 was > 30 µM (inactive).

For CCN(CC)c1ccc(N=Cc2c(O)n(Cc3ccccc3)c(=O)[nH]c2=O)cc1, the EC50 was > 30 µM (inactive).

With Cc1cc(/C=C2/C(=O)NC(=O)N(Cc3ccco3)C2=O)c(C)n1-c1ccc(C(=O)O)cc1 the EC50 was > 30 µM (inactive).
